Measured values as given in PubChem BioAssay (NCI).
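Grown in 96-well plates, cells were treated for 48 hours with each compound at five concentrations. Insufficient inhibition: endpoint recorded as highest concentration tested. Here, GI50 denotes the concentration required for 50% inhibition of growth. Definition used: TGI = concentration required for complete inhibition of growth.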

What was measured:
Experiment in all cases: DTP human tumour cell line panel, 48 h
A498 renal = test system: A498 renal
CAKI-1 renal = test system: CAKI-1 renal
UACC-257 melanoma = test system: UACC-257 melanoma
BT-549 breast = test system: BT-549 breast
HOP-92 NSCLC = test system: HOP-92 NSCLC
SW-620 colon = test system: SW-620 colon
SK-MEL-28 melanoma = test system: SK-MEL-28 melanoma
NCI-H23 lung = test system: NCI-H23 lung
NCI-H226 lung = test system: NCI-H226 lung
HS 578T breast = test system: HS 578T breast
TK-10 renal = test system: TK-10 renal
HCT-15 colon = test system: HCT-15 colon
HCT-116 colon = test system: HCT-116 colon
NCI-H460 lung = test system: NCI-H460 lung
ACHN renal = test system: ACHN renal
A549 NSCLC = test system: A549 NSCLC
RPMI-8226 leukemia = test system: RPMI-8226 leukemia
SF-268 CNS = test system: SF-268 CNS
HL-60(TB) leukemia = test system: HL-60(TB) leukemia
SN12C renal = test system: SN12C renal
IGROV1 ovarian = test system: IGROV1 ovarian
SNB-75 CNS = test system: SNB-75 CNS
T-47D breast = test system: T-47D breast
OVCAR-8 ovarian = test system: OVCAR-8 ovarian
CCRF-CEM leukemia = test system: CCRF-CEM leukemia
NCI-H522 lung = test system: NCI-H522 lung
HCC-2998 colon = test system: HCC-2998 colon
U251 CNS = test system: U251 CNS

**Q.** What does the source list for `CO[C@H]1CSS[C@@H]1Cn1nc(-c2ccc(Oc3ccccc3)cc2)c2c(N)ncnc21`?
**A.** GI50 (A498 renal): 17.7 µM; TGI (A498 renal): 63.9 µM; GI50 (CAKI-1 renal): 8.17 µM; TGI (CAKI-1 renal): 74.7 µM; GI50 (UACC-257 melanoma): 2.98 µM; TGI (UACC-257 melanoma): 12 µM; GI50 (BT-549 breast): 18.4 µM; TGI (BT-549 breast): 34.6 µM; GI50 (HOP-92 NSCLC): 5.03 µM; TGI (HOP-92 NSCLC): 29.3 µM; GI50 (SW-620 colon): 14.6 µM; TGI (SW-620 colon): > 100 µM; GI50 (SK-MEL-28 melanoma): 2.75 µM; TGI (SK-MEL-28 melanoma): 8.16 µM; GI50 (NCI-H23 lung): 8.51 µM; TGI (NCI-H23 lung): 42.1 µM; GI50 (NCI-H226 lung): 9.1 µM; TGI (NCI-H226 lung): 50.3 µM; GI50 (HS 578T breast): 14.2 µM; TGI (HS 578T breast): 68.3 µM; GI50 (TK-10 renal): 8.05 µM; TGI (TK-10 renal): 25.7 µM; GI50 (HCT-15 colon): 6.09 µM; TGI (HCT-15 colon): 32.6 µM; GI50 (HCT-116 colon): 4.19 µM; TGI (HCT-116 colon): 15.9 µM; GI50 (NCI-H460 lung): 2.69 µM; TGI (NCI-H460 lung): 7.89 µM; GI50 (ACHN renal): 4.5 µM; TGI (ACHN renal): 37.3 µM; GI50 (A549 NSCLC): 4.37 µM; TGI (A549 NSCLC): > 100 µM; GI50 (RPMI-8226 leukemia): 13.5 µM; TGI (RPMI-8226 leukemia): 51.4 µM; GI50 (SF-268 CNS): 4.22 µM; TGI (SF-268 CNS): > 100 µM; GI50 (HL-60(TB) leukemia): 4.16 µM; TGI (HL-60(TB) leukemia): 17.6 µM; GI50 (SN12C renal): 6.52 µM; TGI (SN12C renal): 27.3 µM; GI50 (IGROV1 ovarian): 8.69 µM; TGI (IGROV1 ovarian): 35.3 µM; GI50 (SNB-75 CNS): 18.8 µM; TGI (SNB-75 CNS): 75.3 µM; GI50 (T-47D breast): 2.81 µM; TGI (T-47D breast): 20.8 µM; GI50 (OVCAR-8 ovarian): 7.26 µM; TGI (OVCAR-8 ovarian): 53.7 µM; GI50 (CCRF-CEM leukemia): 4.49 µM; TGI (CCRF-CEM leukemia): 22.3 µM; GI50 (NCI-H522 lung): 11 µM; TGI (NCI-H522 lung): 27.2 µM; GI50 (HCC-2998 colon): 4.31 µM; TGI (HCC-2998 colon): 18 µM; GI50 (U251 CNS): 6.89 µM; TGI (U251 CNS): 55.2 µM
